# Source: patent US10854312B2, “Selective peptide antagonists” (BIONIZ, LLC, priority 2013, dated 2020)
# “Also recorded” adds a separate entry of the source. No end group written: not given here.
# Tests used:
# mouse IL-4 = assay: PT-18 proliferation assay (WST-1), IL-4; format: cell-based; conditions: murine PT-18 cells, mouse IL-4, BNZ132-1 50 nM, 500 nM, 5 μM
# Procedure: FIG. 6A-FIG. 6E presents inhibitory spectrum of BNZ132-1 over γc- and non-γc-cytokines. […] Neutralizing antibodies against each cytokine (R & D systems, 5 μg ml^−1) were included as controls. After 20 h, the cells were pulsed with WST-1 (Clontech) and OD450 of each well was measured after 6 h. A 19-mer scrambled peptide was used as a negative control at 5 μM. The experiments were conducted in triplicate (applies to all experiments in FIG. 6A-FIG. 6E). The result represents one of at least three independent experiments (applies to all experiments in FIG. 6A-FIG. 6E). […] In PT-18 proliferation assay, PT-18β or PT-18h21Rα cells were withdrawn of mouse IL-3 for 12 h before the experiment. Cells were then incubated with 1 nM of mouse IL-4, mouse IL-9, or mouse IL-21 in the presence or absence of the indicated doses (μM) of BNZ132-1. Neutralizing antibodies to each cytokine (5 μg ml^−1, except for anti-mouse IL-21 polyclonal antibody which was used at 15 μg ml−1) and a scrambled control peptide (5 μM) were included as negative controls. WST-1 assay was conducted as described above. […] In PT-18 h21Rα survival assay, PT-18h21Rα cells are described in the text. […] Both parental and hIL-21Rα positive PT-18 cells were washed and incubated without IL-3 for 12 h before the assay. […] The Y-axis represents the cpm (count per minute) values measured by a β-counter. […]
# mouse stem cell factor = mouse stem cell factor (Mus musculus, UniProt P20826); assay: PT-18β proliferation assay (3H-thymidine), non-γc cytokine SCF; format: cell-based; conditions: 1 nM mouse stem cell factor, 15 μM BNZ132-1
# Sequence of mouse stem cell factor (P20826 26-273): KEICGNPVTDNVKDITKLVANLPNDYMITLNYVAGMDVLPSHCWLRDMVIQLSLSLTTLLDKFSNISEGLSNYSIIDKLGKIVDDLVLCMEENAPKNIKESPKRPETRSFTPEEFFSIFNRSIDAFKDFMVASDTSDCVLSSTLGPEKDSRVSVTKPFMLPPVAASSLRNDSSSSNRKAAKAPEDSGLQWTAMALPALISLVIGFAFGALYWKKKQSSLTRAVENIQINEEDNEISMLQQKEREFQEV
# HAM/TSP T cells = assay: Spontaneous ex vivo proliferation of HAM/TSP patient lymphocytes (thymidine incorporation); format: cell-based, human; conditions: 5 days culture without exogenous cytokines; BNZ132-1 1 μM or 3 and 0.3 μM; mABs 5 mg/ml each
# Procedure: FIG. 7A, and FIG. 7B present effective inhibition of a combined function of target γc-cytokines by BNZ132-1. […] Human Peripheral T cells were prepared as described in the methodology section. Four hundred thousand cells (in 200 μl culture) were incubated with the cytokines and BNZ132-1 at the indicated concentrations for 24 h, and cellular proliferation was determined by the […] using the WST-1 reagent (Clontech). The Y-axis represents the OD450 values. The p values; 1 nM cytokine combination-No inhibition vs. anti-IL-2; 0.33, No inhibition vs. anti-IL-15; 0.13, No inhibition vs. anti IL-2+IL-15; 0.003. No inhibition vs. BNZ132-1; 0.021. 0.1 nM cytokine combination-No inhibition vs. anti-IL-2; 0.046, No inhibition vs. anti-IL-15; 0.057, No inhibition vs. anti IL-2+IL-15; 0.001, No inhibition vs. anti IL-2+15; 0.001, No inhibition vs.BNZ132-1; 0.001. The assay was performed in triplicate. […] Peripheral blood mononuclear cells were purified from the blood of a HAM-TSP patient and set up for a spontaneous proliferation assay as previously described36. The cellular proliferation was measured by the thymidine incorporation assay. The Y-axis represents the cpm values. Doses are on the X-axis; BNZ132-1, 3 and 0.3 μM. Antibodies against IL-2 or IL-15 (1 and 10 μg ml-1 of each, R & D Systems). […]
# mouse IL-9 signal = assay: Western blot of phosphorylation downstream of IL-9 in PT-18 cells; format: cell-based; conditions: 1 nM mouse IL-9, excess dose of BNZ132-1, 15 min
# Procedure: PT-18 cells32 were fasted of IL-3 for 12 h prior to stimulation. Cells were stimulated with 1 nM mouse IL-4 or mouse IL-9 in the presence or absence of excess dose of BNZ132-1 ([…]) for 15 min and then cellular proteins were extracted. Phosphorylation of the indicated proteins was detected using phosphor-specific antibodies (Cell signaling), followed by ECL. IL-4 is the only γc-cytokine that induces the phosphorylation of STAT6. Note that only IL-4, but not IL-9, induced the tyrosine-phosphorylation of STAT6. […] Lanes: 1. no stimulation, 2. IL-4, 3. IL-4+BNZ132-1, 4. IL-9, 5. IL-9+BNZ132-1
sequence,measurement,setting,value
IKEFLQRFIHIVQSIINTS [BNZ132-1],inhibition of IL-4-induced proliferation of PT-18 cells,mouse IL-4,did not inhibit
same,inhibition of SCF-induced proliferation of PT-18β cells,mouse stem cell factor,did not inhibit; also recorded: no inhibition; also recorded: no inhibition of non-γc cytokines
same,inhibition of spontaneous ex vivo proliferation of HAM/TSP T cells,HAM/TSP T cells,as effective inhibition as combined anti-IL-2 and anti-IL-15 mABs; also recorded: Efficient inhibition
same,"inhibition of IL-9 signal (phosphorylation, STAT5)",mouse IL-9 signal,comprehensively inhibited
